Experimental findings from patent publication US20260049071A1, “PROTEIN TYROSINE KINASE INHIBITOR AND MEDICAL USE THEREOF” (BEYANG THERAPEUTICS CO., LTD., priority 2022, published 2026) are described below.

For one experiment, the target named is EGFR (Homo sapiens (Human), UniProt P00533). As to the kind of experiment: Kinase inhibition, Mobility Shift Assay (EGFR). In kind it is biochemical. The method, then:
(§1) This assay directly monitored the ability of compounds to inhibit kinase phosphorylation by measuring non-phosphorylated and phosphorylated substrates in kinase reactions by using Mobility Shift Assays/IMAP™ analysis.
(§2) Add the kinase and DTT to 1× kinase buffer to form a 2.5× kinase solution; transfer 10 μL of 2.5× kinase solution to a 384-well reaction plate and add 1× kinase buffer to negative control wells. Incubate the plate for 10 min at room temperature; add FAM-labeled peptides, MgCl2, ATP and other reagents to 1× kinase buffer to form a 2.5× substrate solution; transfer 10 μL of the above 2.5× substrate solution to the 384-well reaction plate; incubate the plate at 28° C. for different times, and add 25 μL of stop solution to the 384-well reaction plate to stop the reaction. Read the conversion ratio data on CaliperEZ Reader II. Convert conversion rates into inhibition ratio data.
(§3) “Min” indicates the readout of the control well without the addition of kinase; and “Max” indicates the readout of the control well with the addition of DMSO. Fit IC50 values with XLFit excel add-in version 5.4.0.8.
(§4) X indicates the log value of compound concentration, and Y indicates the inhibition ratio (% inhibition).

The next experiment has as its target KDR (VEGFR2) (Homo sapiens (Human), UniProt P35968). Kind of experiment: Kinase inhibition, Mobility Shift Assay (VEGFR2). In kind it is biochemical. The method, then:
as §1, §2, §3, §4

Chain of KDR (VEGFR2) (P35968 790-1356): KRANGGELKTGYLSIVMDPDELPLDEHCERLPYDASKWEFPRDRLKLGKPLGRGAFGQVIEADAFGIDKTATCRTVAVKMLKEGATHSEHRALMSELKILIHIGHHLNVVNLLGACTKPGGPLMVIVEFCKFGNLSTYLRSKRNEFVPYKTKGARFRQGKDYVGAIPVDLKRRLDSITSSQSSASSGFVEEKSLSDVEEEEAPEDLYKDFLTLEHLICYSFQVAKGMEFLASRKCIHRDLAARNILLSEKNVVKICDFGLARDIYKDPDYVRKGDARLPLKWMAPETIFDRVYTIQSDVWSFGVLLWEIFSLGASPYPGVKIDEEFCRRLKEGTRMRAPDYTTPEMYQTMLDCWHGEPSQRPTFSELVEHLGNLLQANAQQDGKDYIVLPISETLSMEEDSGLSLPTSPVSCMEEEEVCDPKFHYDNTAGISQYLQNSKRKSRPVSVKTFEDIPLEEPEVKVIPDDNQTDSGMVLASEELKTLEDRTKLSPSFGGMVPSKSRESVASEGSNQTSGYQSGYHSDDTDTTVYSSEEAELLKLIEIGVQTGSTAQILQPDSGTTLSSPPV
Chain of EGFR (P00533 25-1210): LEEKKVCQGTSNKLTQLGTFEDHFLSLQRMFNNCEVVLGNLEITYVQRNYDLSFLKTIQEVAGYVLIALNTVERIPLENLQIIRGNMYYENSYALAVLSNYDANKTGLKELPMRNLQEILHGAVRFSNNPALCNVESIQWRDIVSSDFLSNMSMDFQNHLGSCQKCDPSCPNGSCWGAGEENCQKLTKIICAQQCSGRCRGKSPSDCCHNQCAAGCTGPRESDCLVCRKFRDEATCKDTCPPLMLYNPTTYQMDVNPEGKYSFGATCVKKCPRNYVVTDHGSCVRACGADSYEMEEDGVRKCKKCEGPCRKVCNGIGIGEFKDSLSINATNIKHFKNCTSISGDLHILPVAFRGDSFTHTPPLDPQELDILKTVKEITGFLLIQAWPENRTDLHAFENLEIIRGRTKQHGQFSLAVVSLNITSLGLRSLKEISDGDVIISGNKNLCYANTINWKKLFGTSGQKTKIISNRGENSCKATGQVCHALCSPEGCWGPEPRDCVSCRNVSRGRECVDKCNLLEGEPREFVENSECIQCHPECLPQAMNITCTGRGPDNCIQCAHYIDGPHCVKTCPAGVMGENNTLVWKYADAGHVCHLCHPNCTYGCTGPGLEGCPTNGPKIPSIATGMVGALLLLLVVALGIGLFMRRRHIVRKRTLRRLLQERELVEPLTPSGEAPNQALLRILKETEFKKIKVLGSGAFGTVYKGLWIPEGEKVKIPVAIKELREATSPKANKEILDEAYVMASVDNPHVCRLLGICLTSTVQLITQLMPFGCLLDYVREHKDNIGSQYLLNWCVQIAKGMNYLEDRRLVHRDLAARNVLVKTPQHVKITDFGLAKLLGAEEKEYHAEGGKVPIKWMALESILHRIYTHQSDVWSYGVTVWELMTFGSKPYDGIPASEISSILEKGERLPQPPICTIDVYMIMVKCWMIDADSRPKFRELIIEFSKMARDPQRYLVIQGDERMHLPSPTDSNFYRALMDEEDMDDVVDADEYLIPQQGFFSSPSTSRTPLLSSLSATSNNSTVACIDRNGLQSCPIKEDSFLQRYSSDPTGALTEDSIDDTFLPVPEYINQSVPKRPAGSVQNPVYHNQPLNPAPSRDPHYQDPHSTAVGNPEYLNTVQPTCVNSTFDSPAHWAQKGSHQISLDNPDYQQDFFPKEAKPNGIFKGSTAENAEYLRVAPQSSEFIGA

Consider `CCN(CC)Cc1ccc(/C=C/c2n[nH]c3cc(Sc4cc(F)ccc4C(=O)NC)ccc23)nc1` [Compound I-92, 2-({3-[(E)-2-{5-[(diethylamino)methyl]pyridin-2-yl}vinyl]-1H-indazol-6-yl}thio)-4-fluoro-N-methylbenzamide], for which the IC50 on EGFR lay within 6000 to 60000 nM; at KDR (VEGFR2), 1 to 10 nM.

Consider `CCNC(=O)c1ccc(Sc2ccc3c(/C=C/c4ccc(CN(CC)CC)cn4)n[nH]c3c2)cc1F` [Compound I-87, 4-({3-[(E)-2-{5-[(diethylamino)methyl]pyridin-2-yl}vinyl]-1H-indazol-6-yl}thio)-N-ethyl-2-fluorobenzamide], for which the IC50 on EGFR is > 60000 nM; on KDR (VEGFR2), > 100 nM.

In the case of `O=C(NC1CC1)c1ccccc1Sc1ccc2c(/C=C/c3ccn(CCN4CCCC4)n3)n[nH]c2c1` [Compound I-60, N-cyclopropyl-2-({3-[(E)-2-{1-[2-(pyrrolidin-1-yl)ethyl]-1H-pyrazol-3-yl}vinyl]-1H-indazol-6-yl}thio)benzamide], the IC50 at EGFR fell in the range of 600 to 6000 nM; on KDR (VEGFR2), 1 to 10 nM.

Regarding `O=C(NC1CC1)c1cccc(F)c1Sc1ccc2c(/C=C/c3cccc(CCN4CCCC4)n3)n[nH]c2c1` [Compound I-128, N-cyclopropyl-3-fluoro-2-({3-[(E)-2-{6-[2-(pyrrolidin-1-yl)ethyl]pyridin-2-yl}vinyl]-1H-indazol-6-yl}thio)benzamide], the IC50 on EGFR was > 60000 nM; on KDR (VEGFR2), 10 to 100 nM.

For the molecule `O=C(NC1CC1)c1cc(F)ccc1Sc1ccc2c(/C=C/c3cccc(CCN4CCCC4)n3)n[nH]c2c1` [Compound I-136, N-cyclopropyl-5-fluoro-2-({3-[(E)-2-{6-[2-(pyrrolidin-1-yl)ethyl]pyridin-2-yl}vinyl]-1H-indazol-6-yl}thio)benzamide], the IC50 at EGFR is > 60000 nM; on KDR (VEGFR2), 1 to 10 nM.

On to `CCNC(=O)c1ccc(F)cc1Sc1ccc2c(/C=C/c3cnn(CCCN4CCCC4)c3)n[nH]c2c1` [Compound I-103, N-ethyl-4-fluoro-2-({3-[(E)-2-{1-[3-(pyrrolidin-1-yl)propyl]-1H-pyrazol-4-yl}vinyl]-1H-indazol-6-yl}thio)benzamide], for which the IC50 is 6000 to 60000 nM on EGFR and ≤ 1 nM on KDR (VEGFR2).

`O=C(NC1CC1)c1cc(F)ccc1Sc1ccc2c(/C=C/c3cccc(CN4CCCC4)n3)n[nH]c2c1` [Compound I-138, N-cyclopropyl-5-fluoro-2-({3-[(E)-2-{6-[(pyrrolidin-1-yl)methyl]pyridin-2-yl}vinyl]-1H-indazol-6-yl}thio)benzamide]: the concentration for half-maximal inhibition (IC50) on EGFR is > 60000 nM; on KDR (VEGFR2), 1 to 10 nM.

For `CCNC(=O)c1cccc(F)c1Sc1ccc2c(/C=C/c3ccc(CN(CC)CC)cn3)n[nH]c2c1` [Compound I-111, 2-({3-[(E)-2-{5-[(diethylamino)methyl]pyridin-2-yl}vinyl]-1H-indazol-6-yl}thio)-N-ethyl-3-fluorobenzamide], the values for the half-maximal inhibitory concentration (IC50) on EGFR and at KDR (VEGFR2) were 6000 to 60000 nM and 1 to 10 nM, respectively.

`O=C(NC1CC1)c1ccccc1Sc1ccc2c(C#Cc3ccc(OCCN4CCCC4)cn3)n[nH]c2c1` [Compound I-139, N-cyclopropyl-2-{[3-(2-{5-[2-(pyrrolidin-1-yl)ethoxy]pyridin-2-yl}ethynyl)-1H-indazol-6-yl]thio}benzamide]: the IC50 at EGFR is > 60000 nM; at KDR (VEGFR2) it was 10 to 100 nM.

As for `CCNC(=O)c1cc(F)ccc1Sc1ccc2c(/C=C/c3cc(CCCN4CCCC4)ccn3)n[nH]c2c1` [Compound I-122, N-ethyl-5-fluoro-2-({3-[(E)-2-{4-[3-(pyrrolidin-1-yl)propyl]pyridin-2-yl}vinyl]-1H-indazol-6-yl}thio)benzamide], the IC50 at EGFR was > 60000 nM; at KDR (VEGFR2), 1 to 10 nM.

Regarding `O=C(NC1CC1)c1cc(F)ccc1Sc1ccc2c(/C=C/c3cc(CN4CCCC4)ccn3)n[nH]c2c1` [Compound I-137, N-cyclopropyl-5-fluoro-2-({3-[(E)-2-{4-[(pyrrolidin-1-yl)methyl]pyridin-2-yl}vinyl]-1H-indazol-6-yl}thio)benzamide], the IC50 at EGFR was > 60000 nM; on KDR (VEGFR2) it was 1 to 10 nM.

Consider `CCN(CC)CCc1ccc(/C=C/c2n[nH]c3cc(Sc4cc(F)ccc4C(=O)NC4CC4)ccc23)nc1` [Compound I-108, N-cyclopropyl-2-({3-[(E)-2-{5-[2-(diethylamino)ethyl]pyridin-2-yl}vinyl]-1H-indazol-6-yl}thio)-4-fluorobenzamide], for which the IC50 at EGFR is 6000 to 60000 nM; on KDR (VEGFR2), ≤ 1 nM.

`CNC(=O)c1cc(F)ccc1Sc1ccc2c(/C=C/c3ccc(CN4CCCC4)cn3)n[nH]c2c1` [Compound I-95, 5-fluoro-N-methyl-2-({3-[(E)-2-{5-[(pyrrolidin-1-yl)methyl]pyridin-2-yl}vinyl]-1H-indazol-6-yl}thio)benzamide]: the IC50 on EGFR is 6000 to 60000 nM; on KDR (VEGFR2), 1 to 10 nM.

Turning to `CCNC(=O)c1cccc(F)c1Sc1ccc2c(/C=C/c3cc(CN4CCCC4)ccn3)n[nH]c2c1` [Compound I-114, N-ethyl-3-fluoro-2-({3-[(E)-2-{4-[(pyrrolidin-1-yl)methyl]pyridin-2-yl}vinyl]-1H-indazol-6-yl}thio)benzamide], the concentration for half-maximal inhibition (IC50) at EGFR is > 60000 nM; at KDR (VEGFR2) it was > 100 nM.

For the molecule `O=C(NC1CC1)c1cc(F)ccc1Sc1ccc2c(/C=C/c3cccc(CCCN4CCCC4)n3)n[nH]c2c1` [Compound I-132, N-cyclopropyl-5-fluoro-2-({3-[(E)-2-{6-[3-(pyrrolidin-1-yl)propyl]pyridin-2-yl}vinyl]-1H-indazol-6-yl}thio)benzamide], the IC50 at EGFR was 6000 to 60000 nM; on KDR (VEGFR2) it was 1 to 10 nM.

As to `O=C(NC1CC1)c1cccc(F)c1Sc1ccc2c(/C=C/c3ccn(CCN4CCCC4)n3)n[nH]c2c1` [Compound I-69], the IC50 at EGFR was in the range of 6000 to 60000 nM; at KDR (VEGFR2), 10 to 100 nM.

For `O=C(NC1CC1)c1cc(F)ccc1Sc1ccc2c(/C=C/c3cc(CCN4CCCC4)ccn3)n[nH]c2c1` [Compound I-135, N-cyclopropyl-5-fluoro-2-({3-[(E)-2-{4-[2-(pyrrolidin-1-yl)ethyl]pyridin-2-yl}vinyl]-1H-indazol-6-yl}thio)benzamide], the IC50 at EGFR was > 60000 nM; at KDR (VEGFR2), 10 to 100 nM.

Take `CCNC(=O)c1cccc(F)c1Sc1ccc2c(/C=C/c3cnn(CCCN4CCCC4)c3)n[nH]c2c1` [Compound I-102]: the IC50 is 6000 to 60000 nM at EGFR and 10 to 100 nM at KDR (VEGFR2).

For the molecule `O=C(NC1CC1)c1cc(F)ccc1Sc1ccc2c(/C=C/c3cnn(CCCN4CCCC4)c3)n[nH]c2c1` [Compound I-46, N-cyclopropyl-5-fluoro-2-({3-[(E)-2-{1-[3-(pyrrolidin-1-yl)propyl]-1H-pyrazol-4-yl}vinyl]-1H-indazol-6-yl}thio)benzamide], the IC50 at EGFR is 6000 to 60000 nM; on KDR (VEGFR2) it was ≤ 1 nM.

Turning to `CNC(=O)c1ccccc1Sc1ccc2c(/C=C/c3ccc(CN4CCCC4)cn3)n[nH]c2c1` [Compound I-74, N-methyl-2-({3-[(E)-2-{5-[(pyrrolidin-1-yl)methyl]pyridin-2-yl}vinyl]-1H-indazol-6-yl}thio)benzamide], the IC50 on EGFR lay in the range of 6000 to 60000 nM; at KDR (VEGFR2), 1 to 10 nM.

Turning to `CCNC(=O)c1cccc(F)c1Sc1ccc2c(/C=C/c3ccc(CN4CCCC4)cn3)n[nH]c2c1` [Compound I-75, N-ethyl-3-fluoro-2-({3-[(E)-2-{5-[(pyrrolidin-1-yl)methyl]pyridin-2-yl}vinyl]-1H-indazol-6-yl}thio)benzamide], the IC50 was 6000 to 60000 nM on EGFR and 1 to 10 nM on KDR (VEGFR2).

In general, IC50 refers to the concentration at which inhibition is half-maximal.
